Measurements taken from paper PMC1997131, “Enzymes involved in DNA ligation and end-healing in the radioresistant bacterium Deinococcus radiodurans” (BMC Molecular Biology, 2007).

Molecular target: T1, LigA (Deinococcus radiodurans, UniProt Q9RSQ5)
T1 construct: full-length, N-terminal hexahistidine tag (pRSETb, kept), E. coli BL21(DE3)
Test: adenylyltransferase assay, SDS-PAGE autoradiography
Format: biochemical
Settings: 0.1 μM [32P]-NAD+, 1 mM MnCl2, pH 6.8, 30 °C; covalent AMP adduct; labelled compound

Compound: NC(=O)c1ccc[n+]([C@@H]2O[C@H](COP(=O)(O)OP(=O)(O)OC[C@H]3O[C@@H](n4cnc5c(N)ncnc54)[C@H](O)[C@@H]3O)[C@@H](O)[C@H]2O)c1 [NAD^+]
- adenylyltransferase assay, SDS-PAGE autoradiography: in an adenylyltransferase activity assay LigA wt formed an AMP-ligase complex
